Read-outs that look alike come from different tables or passages of the source.

For 21 molecules, activation results are on record in patent US9790233B2, “Compositions and methods of modulating 15-PGDH activity” (CASE WESTERN RESERVE UNIVERSITY, priority 2012, dated 2017).

Common to all, as to assay type: cell-based
Assay [1] has as its system 15-PGDH luciferase fusion construct in Vaco503 reporter cell line. Put plainly: 15-PGDH-luciferase fusion gene reporter induction, V503 cells.
In assay [2] the test system is 15-PGDH luciferase fusion construct in V9m reporter cell line. Nature of the assay: 15-PGDH-luciferase fusion gene reporter induction, V9m cells.
In assay [3] the test system is 15-PGDH luciferase fusion construct in LS174T reporter cell line. Put plainly: 15-PGDH-luciferase fusion gene reporter induction, LS174T cells. Particulars: Homo sapiens.
Where [4] appears, read: read-out: V503 reporter activity ([…]), […], % increased luciferase activity over basal level, read-out: V503 reporter activity (2.5 uM).
Where [5] appears, read: read-out: V503 reporter activity ([…]), […], % increased luciferase activity over basal level, read-out: V503 reporter activity (7.5 uM).
Where [6] appears, read: read-out: V9M reporter activity ([…]), […], % increased luciferase activity over basal level, 100 = doubling, read-out: V9M reporter activity (2.5 uM).
[7] abbreviates: read-out: V9M reporter activity ([…]), […], % increased luciferase activity over basal level, 100 = doubling, read-out: V9M reporter activity (7.5 uM).
The mark [8] stands for this setting: read-out: LS174T reporter activity ([…]), […], % increased luciferase activity over basal level, read-out: LS174T reporter activity (2.5 uM).
Setting [9] is: read-out: LS174T reporter activity ([…]), […], % increased luciferase activity over basal level, read-out: LS174T reporter activity (7.5 uM).
Setting [10] is: read-out: V503-3H9-7 reporter activity, % ([…]), V503 reporter cells, […] compound, % induction of luciferase activity over basal level, read-out: V503-3H9-7 reporter activity, % (2.5 μM).
[11] abbreviates: read-out: V503-3H9-7 reporter activity, % ([…]), V503 reporter cells, […] compound, % induction of luciferase activity over basal level, read-out: V503-3H9-7 reporter activity, % (7.5 μM).
Where [12] appears, read: read-out: V9M-SC3 Reporter activity ([…]) (%), V9m reporter cells, […] compound, % induction of luciferase activity over basal level, read-out: V9M-SC3 Reporter activity (2.5 μM) (%).
The mark [13] stands for this setting: read-out: V9M-SC3 Reporter activity ([…]), %, V9m reporter cells, […] compound, % induction of luciferase activity over basal level, read-out: V9M-SC3 Reporter activity (7.5 μM), %.
The mark [14] stands for this setting: read-out: Ls174T-SC1 reporter activity, % ([…]), LS174T reporter cells, […] compound, % induction of luciferase activity over basal level, read-out: Ls174T-SC1 reporter activity, % (2.5 μM).
The mark [15] stands for this setting: read-out: Ls174T-SC1 reporter activity, % ([…]), LS174T reporter cells, […] compound, % induction of luciferase activity over basal level, read-out: Ls174T-SC1 reporter activity, % (7.5 μM).
Where [16] appears, read: read-out: V503-3H9-7 reporter activity, % ([…]), […], Table 18, read-out: V503-3H9-7 reporter activity, % (2.5 μM).
[17] abbreviates: read-out: V503-3H9-7 reporter activity, % ([…]), […], Table 18, read-out: V503-3H9-7 reporter activity, % (7.5 μM).
The mark [18] stands for this setting: read-out: V9M-SC3 Reporter activity ([…]) (%), […], Table 18, read-out: V9M-SC3 Reporter activity (2.5 μM) (%).
[19] abbreviates: read-out: Ls174T-SC1 reporter activity, % ([…]), […], Table 18, read-out: Ls174T-SC1 reporter activity, % (2.5 μM).
The mark [20] stands for this setting: read-out: Ls174T-SC1 reporter activity, % ([…]), […], Table 18, read-out: Ls174T-SC1 reporter activity, % (7.5 μM).
The mark [21] stands for this setting: read-out: V503 reporter activity ([…]), […], % induction over basal level, Table 17, read-out: V503 reporter activity (2.5 μM).
[22] abbreviates: read-out: V503 reporter activity ([…]), […], % induction over basal level, Table 17, read-out: V503 reporter activity (7.5 μM).
The mark [23] stands for this setting: read-out: V9M reporter activity ([…]), […], % induction of luciferase activity over basal level, Table 17, read-out: V9M reporter activity (2.5 μM).
[24] abbreviates: read-out: V9M reporter activity ([…]), […], % induction over basal level, Table 17, read-out: V9M reporter activity (7.5 μM).
Setting [25] is: read-out: LS174T reporter activity ([…]), […], % induction over basal level, Table 17, read-out: LS174T reporter activity (2.5 μM).
[26] abbreviates: read-out: lS174T reporter activity ([…]), […], % induction over basal level, Table 17, read-out: lS174T reporter activity (7.5 μM).

For `CCCC[S+]([O-])c1sc2nc(-c3ccccc3)nc(-c3ccccc3)c2c1N` (stereo not shown) [SW208065, 6-(butylsulfinyl)-2,4-diphenylthieno[2,3-d]pyrimidin-5-amine], the activation at […] in assay [1] (setting [4]) came to 73.5%; in assay [1] (setting [5]), 87.7%; in assay [2] (setting [6]), 120%; in assay [2] (setting [7]) it was 119%; in assay [3] (setting [8]) it was 73.5%; in assay [3] (setting [9]) it was 87.7%.

With `COc1ccc(OC)c(N(CC(=O)Nc2cccnc2)S(=O)(=O)c2ccc(C)cc2)c1` [SW202939], the activation at […] in assay [1] (setting [10]) was found to be 26.6%; in assay [1] (setting [11]) it was 27.3%; in assay [2] (setting [12]), 75.3%; in assay [2] (setting [13]), 128%; in assay [3] (setting [14]), 75.5%; in assay [3] (setting [15]), 166%.

With `COc1ccc(OC)c(N(CC(=O)N2CCCCCC2)S(=O)(=O)c2ccccc2)c1` [SW208000], the activation at […] in assay [1] (setting [10]) amounted to 122%; in assay [1] (setting [11]), 138%; in assay [2] (setting [12]), 33.5%; in assay [2] (setting [13]), 36.6%; in assay [3] (setting [14]) it was 42%; in assay [3] (setting [15]) it was 70.5%.

For the molecule `COc1ccc(OC)c(N(CC(=O)Nc2ccc(Cl)c(Cl)c2)S(=O)(=O)c2ccccc2)c1` [339589-55-8], the activation at […] was 64% in assay [1] (setting [16]); 52.5% in assay [1] (setting [17]); -7% in assay [2] (setting [18]); -5.54% in assay [3] (setting [19]); 8.81% in assay [3] (setting [20]).

On to `COC(=O)c1ccccc1NC(=O)CN(c1cc(OC)ccc1OC)S(=O)(=O)c1ccccc1` [333449-58-4], for which the activation at […] in assay [1] (setting [16]) is 50.1%; in assay [1] (setting [17]), 20.7%; in assay [2] (setting [18]) it was 6.5%; in assay [3] (setting [19]) it was -5.9%; in assay [3] (setting [20]), -3.99%.

As to `COc1ccc(N(CC(=O)Nc2ccc(C(=O)O)cc2)S(=O)(=O)c2ccccc2)cc1` [compound 742790], the activation at […] in assay [1] (setting [21]) stood at 5.94%; in assay [1] (setting [22]), 34.4%; in assay [2] (setting [23]) it was 13.8%; in assay [2] (setting [24]) it was 23.1%; in assay [3] (setting [25]), 12.8%; in assay [3] (setting [26]) it was 17.3%.

For `COc1ccc(OC)c(N(CC(=O)NC(C)c2ccccc2)S(=O)(=O)c2ccc(OC)c(OC)c2)c1` (stereo not shown) [compound 967134], the activation at […] is 18.4% in assay [1] (setting [21]); 36.1% in assay [1] (setting [22]); -10.1% in assay [2] (setting [23]); -2.64% in assay [2] (setting [24]); 5.11% in assay [3] (setting [25]); 5.73% in assay [3] (setting [26]).

For `COc1ccc(OC)c(N(CC(=O)Nc2cccnc2)S(=O)(=O)c2ccccc2C)c1` [SW202943], the activation at […] in assay [1] (setting [10]) stood at 72.3%; in assay [1] (setting [11]) it was 147%; in assay [2] (setting [12]) it was 7.12%; in assay [2] (setting [13]) it was 17.8%; in assay [3] (setting [14]), 33.1%; in assay [3] (setting [15]), 55.7%.

Regarding `COC(=O)CN(c1cc(OC)ccc1OC)S(=O)(=O)c1ccccc1` [SW202980], the activation at […] in assay [1] (setting [10]) is 11.4%; in assay [1] (setting [11]), 50.6%; in assay [2] (setting [12]), -27.6%; in assay [2] (setting [13]), -13.4%; in assay [3] (setting [14]), -7.34%; in assay [3] (setting [15]) it was 5.17%.

Take `COc1ccc(OC)c(N(CC(=O)N2CCCC2=O)S(=O)(=O)c2ccccc2)c1` [SW208002]: the activation at […] in assay [1] (setting [10]) is -15.7%; in assay [1] (setting [11]), -16.5%; in assay [2] (setting [12]) it was -12.4%; in assay [2] (setting [13]), -21.8%; in assay [3] (setting [14]), -14.5%; in assay [3] (setting [15]), -14.6%.

With `COc1ccc(OC)c(N(CC(=O)Nc2ccccn2)S(=O)(=O)c2ccccc2)c1` [SW202941], the activation at […] is 75.9% in assay [1] (setting [10]); 83.5% in assay [1] (setting [11]); -10.9% in assay [2] (setting [12]); 2.57% in assay [2] (setting [13]); -23.8% in assay [3] (setting [14]); -43.2% in assay [3] (setting [15]).

On to `CCOC(=O)c1sc2nc(-c3cccs3)cc(-c3ccc(F)cc3)c2c1N` [compound 413423], for which the activation at […] in assay [1] (setting [4]) was 7.89%; in assay [1] (setting [5]), 3.13%; in assay [2] (setting [6]), -5.65%; in assay [2] (setting [7]), -8.76%; in assay [3] (setting [8]) it was 3.41%; in assay [3] (setting [9]), 3.91%.

Consider `COc1ccc(OC)c(N(CC(=O)Nc2cccnc2)S(=O)(=O)c2cccc(C)c2)c1` [SW203684], for which the activation at […] was determined as 81.2% in assay [1] (setting [10]); 52.5% in assay [1] (setting [11]); 50.7% in assay [2] (setting [12]); 74.9% in assay [2] (setting [13]); 170% in assay [3] (setting [14]); 119% in assay [3] (setting [15]).

On to `O=C(CN(c1cc(Cl)ccc1Cl)S(=O)(=O)c1ccccc1)Nc1cccnc1` [833428−03−8], for which the activation at […] in assay [1] (setting [16]) is 96.4%; in assay [1] (setting [17]) it was 150%; in assay [2] (setting [18]), -4.1%; in assay [3] (setting [19]) it was 25.1%; in assay [3] (setting [20]), 47.4%.

As to `COc1ccc(OC)c(N(CC(=O)Nc2cccc(Cl)c2)S(=O)(=O)c2ccccc2)c1` [SW202985], the activation at […] in assay [1] (setting [10]) is 79.6%; in assay [1] (setting [11]), 150%; in assay [2] (setting [12]), -27.3%; in assay [2] (setting [13]) it was -21.9%; in assay [3] (setting [14]) it was -4.89%; in assay [3] (setting [15]) it was 26.3%.

Take `COc1ccc(OC)c(N(CC(=O)Nc2cncc(C)c2)S(=O)(=O)c2ccccc2)c1` [SW202974]: the activation at […] is 59.9% in assay [1] (setting [10]); 179% in assay [1] (setting [11]); -9.04% in assay [2] (setting [12]); 35.9% in assay [2] (setting [13]); -8.77% in assay [3] (setting [14]); 34.8% in assay [3] (setting [15]).

`COc1ccc(OC)c(N(CC(=O)N(C)c2cccnc2)S(=O)(=O)c2ccccc2)c1` [SW203686]: the activation at […] in assay [1] (setting [10]) is -11%; in assay [1] (setting [11]), 65.6%; in assay [2] (setting [12]), 15.1%; in assay [2] (setting [13]) it was 30.3%; in assay [3] (setting [14]) it was 116%; in assay [3] (setting [15]) it was 28.5%.

Take `CCc1ccc(N(CC(=O)Nc2cccnc2)S(=O)(=O)c2ccccc2)cc1` [461439−84−9]: the activation at […] in assay [1] (setting [16]) is 1.57%; in assay [1] (setting [17]), 5.41%; in assay [2] (setting [18]), -30.3%; in assay [3] (setting [19]), 4.83%; in assay [3] (setting [20]), -35%.

On to `COc1ccc(OC)c(N(CC(=O)OC(C)(C)C)S(=O)(=O)c2ccccc2)c1` [SW202979], for which the activation at […] in assay [1] (setting [10]) is 41.6%; in assay [1] (setting [11]), 133%; in assay [2] (setting [12]), -14.4%; in assay [2] (setting [13]), 10.8%; in assay [3] (setting [14]) it was -8.92%; in assay [3] (setting [15]), 17.8%.

Regarding `COc1ccc(OC)c(N(CC(=O)NC2CCCCC2)S(=O)(=O)c2ccccc2)c1` [333446-93-8], the activation at […] in assay [1] (setting [16]) is 53.8%; in assay [1] (setting [17]) it was 44.1%; in assay [2] (setting [18]), 16.5%; in assay [3] (setting [19]), 12.9%; in assay [3] (setting [20]), 13.5%.

For `COc1ccc(OC)c(N(CC(=O)Nc2cccnc2)S(=O)(=O)c2ccc(C(C)=O)cc2)c1` [SW202950], the activation at […] in assay [1] (setting [10]) is -6.56%; in assay [1] (setting [11]), 12.9%; in assay [2] (setting [12]) it was 12.6%; in assay [2] (setting [13]) it was 23.9%; in assay [3] (setting [14]), -2.7%; in assay [3] (setting [15]), 10.7%.
